One assay concerns the target T1, hCA IX (Homo sapiens, UniProt Q16790).
T1 construct: His-tag (N); made in house; host or cells: Escherichia coli BL21 (DE3)
Put plainly: CA inhibition, stopped-flow CO2 hydration assay. Format: biochemical. The following applies: stopped-flow technique; mean of three experiments, errors ±5–10%.

The target in the next assay is hCA VII (Homo sapiens, UniProt P43166). The assay is described as follows: CA inhibition, stopped-flow CO2 hydration assay.
The target in another assay is T2, hCA VA (Homo sapiens, UniProt P35218).
T2 construct: His-tag (N); made in house; host or cells: Escherichia coli BL21 (DE3)
Put plainly: CA inhibition, stopped-flow CO2 hydration assay. Format: biochemical. The following applies: stopped-flow technique; mean of three experiments, errors ±5–10%.

The next assay has as its target T3, hCA XII (Homo sapiens, UniProt O43570).
T3 construct: His-tag (N); made in house; host or cells: Escherichia coli BL21 (DE3)
Put plainly: CA inhibition, stopped-flow CO2 hydration assay. Type of assay: biochemical. The following applies: stopped-flow technique; mean of three experiments, errors ±5–10%.

The target of the next assay is T4, Recombinant human MAO-A (Homo sapiens, UniProt P21397).
T4 construct: purchased Sigma-Aldrich
T4 sequence (P21397 1-527): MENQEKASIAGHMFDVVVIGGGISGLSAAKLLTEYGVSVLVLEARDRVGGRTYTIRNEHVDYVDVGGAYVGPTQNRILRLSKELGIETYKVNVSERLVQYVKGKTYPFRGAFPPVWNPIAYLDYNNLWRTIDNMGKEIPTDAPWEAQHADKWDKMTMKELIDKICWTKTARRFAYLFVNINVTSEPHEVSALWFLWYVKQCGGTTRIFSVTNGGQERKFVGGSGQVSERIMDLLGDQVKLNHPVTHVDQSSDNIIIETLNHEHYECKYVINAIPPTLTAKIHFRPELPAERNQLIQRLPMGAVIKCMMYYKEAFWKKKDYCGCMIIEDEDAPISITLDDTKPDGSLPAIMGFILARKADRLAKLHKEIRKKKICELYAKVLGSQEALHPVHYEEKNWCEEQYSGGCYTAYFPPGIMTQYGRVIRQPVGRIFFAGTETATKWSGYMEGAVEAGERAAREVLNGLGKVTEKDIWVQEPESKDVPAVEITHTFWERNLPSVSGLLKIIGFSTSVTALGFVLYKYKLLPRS
Put plainly: In vitro MAO-A inhibition assay (kynuramine, fluorescence). Type of assay: biochemical. The following applies: kynuramine substrate, mean ± S.D. of three independent experiments.

The target in another assay is T5, hCA VB (Homo sapiens, UniProt Q9Y2D0).
T5 construct: His-tag (N); made in house; host or cells: Escherichia coli BL21 (DE3)
The assay is described as follows: CA inhibition, stopped-flow CO2 hydration assay. Format: biochemical. The following applies: stopped-flow technique; mean of three experiments, errors ±5–10%.

The next assay concerns the target T6, hCA II (Homo sapiens, UniProt P00918).
T6 construct: His-tag (N); made in house; host or cells: Escherichia coli BL21 (DE3)
Put plainly: CA inhibition, stopped-flow CO2 hydration assay. Type of assay: biochemical. The following applies: for Ki: stopped-flow technique, mean of three experiments, errors ±5–10%.

Another assay deals with T7, hCA I (Homo sapiens, UniProt P00915).
T7 construct: His-tag (N); made in house; host or cells: Escherichia coli BL21 (DE3)
The assay is described as follows: CA inhibition, stopped-flow CO2 hydration assay. Format: biochemical. The following applies: for Ki: stopped-flow technique, mean of three experiments, errors ±5–10%.

A further assay has as its target T8, Recombinant human MAO-B (Homo sapiens, UniProt P27338).
T8 construct: purchased Sigma-Aldrich
T8 sequence (P27338 1-520): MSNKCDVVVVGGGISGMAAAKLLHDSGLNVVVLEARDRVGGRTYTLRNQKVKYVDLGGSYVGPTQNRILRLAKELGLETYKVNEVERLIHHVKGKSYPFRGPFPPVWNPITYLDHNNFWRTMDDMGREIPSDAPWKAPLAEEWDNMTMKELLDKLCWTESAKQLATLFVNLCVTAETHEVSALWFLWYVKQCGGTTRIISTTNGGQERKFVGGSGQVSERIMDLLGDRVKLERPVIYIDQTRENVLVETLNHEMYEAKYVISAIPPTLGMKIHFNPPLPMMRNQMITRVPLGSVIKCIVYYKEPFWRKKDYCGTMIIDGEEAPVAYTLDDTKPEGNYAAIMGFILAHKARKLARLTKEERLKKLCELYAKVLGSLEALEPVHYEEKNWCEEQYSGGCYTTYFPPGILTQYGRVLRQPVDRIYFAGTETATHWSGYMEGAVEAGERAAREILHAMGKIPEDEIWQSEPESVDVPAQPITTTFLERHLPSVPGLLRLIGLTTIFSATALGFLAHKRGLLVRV
Put plainly: In vitro MAO-B inhibition assay (kynuramine, fluorescence). Type of assay: biochemical. The following applies: kynuramine substrate, mean ± S.D. of three independent experiments.

The next assay has as its system MAO. More on the design: method as in PMID 30809547. The following applies: cited from earlier work.
A further assay has as its system MAO-B. More on the design: method as in PMID 7699569. The following applies: cited from earlier work.

Each structure is given as a SMILES string. “And” between values parts separate entries of the source, which are not always exact repeats. Equal values may be shown once. Where only a bound is given, the exact number is not on record here.

T7 sequence (P00915 whole entry): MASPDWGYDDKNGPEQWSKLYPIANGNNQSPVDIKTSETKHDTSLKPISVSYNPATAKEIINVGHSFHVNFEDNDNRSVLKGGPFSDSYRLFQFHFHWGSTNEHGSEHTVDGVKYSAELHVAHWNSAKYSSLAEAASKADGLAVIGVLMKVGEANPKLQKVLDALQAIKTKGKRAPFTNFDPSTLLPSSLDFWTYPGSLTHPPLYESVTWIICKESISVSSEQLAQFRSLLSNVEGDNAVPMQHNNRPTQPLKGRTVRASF
T2 sequence (P35218 39-305): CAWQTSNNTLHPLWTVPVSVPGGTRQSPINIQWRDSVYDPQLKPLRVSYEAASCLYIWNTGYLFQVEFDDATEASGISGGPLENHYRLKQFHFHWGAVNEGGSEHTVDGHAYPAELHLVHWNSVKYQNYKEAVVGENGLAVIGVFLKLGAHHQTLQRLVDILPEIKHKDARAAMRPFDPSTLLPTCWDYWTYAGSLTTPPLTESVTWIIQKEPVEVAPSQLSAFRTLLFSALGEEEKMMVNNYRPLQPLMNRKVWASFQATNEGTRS
T5 sequence (Q9Y2D0 34-317): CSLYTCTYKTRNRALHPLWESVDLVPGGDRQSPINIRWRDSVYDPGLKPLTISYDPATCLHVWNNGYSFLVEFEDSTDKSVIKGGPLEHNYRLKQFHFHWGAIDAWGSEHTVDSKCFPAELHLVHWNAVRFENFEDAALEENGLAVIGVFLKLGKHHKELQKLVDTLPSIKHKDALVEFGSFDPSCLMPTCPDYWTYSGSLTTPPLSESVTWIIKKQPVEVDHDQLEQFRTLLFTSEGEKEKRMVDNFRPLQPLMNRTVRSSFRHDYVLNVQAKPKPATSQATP
T3 sequence (O43570 25-354): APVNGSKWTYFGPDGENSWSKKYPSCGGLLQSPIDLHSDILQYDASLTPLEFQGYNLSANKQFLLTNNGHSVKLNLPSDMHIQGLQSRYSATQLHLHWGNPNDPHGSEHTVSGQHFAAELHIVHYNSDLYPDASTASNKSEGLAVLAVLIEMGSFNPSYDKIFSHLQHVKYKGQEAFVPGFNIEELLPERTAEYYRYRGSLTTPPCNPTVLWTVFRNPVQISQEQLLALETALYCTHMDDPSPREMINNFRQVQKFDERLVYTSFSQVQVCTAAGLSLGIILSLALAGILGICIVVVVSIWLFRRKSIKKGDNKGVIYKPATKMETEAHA
Chain of hCA VII (P43166 whole entry): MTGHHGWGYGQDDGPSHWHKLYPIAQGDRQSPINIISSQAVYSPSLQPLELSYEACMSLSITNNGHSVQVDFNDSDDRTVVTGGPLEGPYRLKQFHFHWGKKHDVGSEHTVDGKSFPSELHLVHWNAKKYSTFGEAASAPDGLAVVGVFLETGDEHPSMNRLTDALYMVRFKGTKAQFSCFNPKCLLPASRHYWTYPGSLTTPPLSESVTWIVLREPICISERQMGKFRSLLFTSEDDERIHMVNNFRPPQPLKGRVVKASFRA
Experimental for Recombinant human MAO-A: (§1) Kynuramine is a non-specific substrate and served as the substrate for both MAO isoforms. The MAOs metabolize kynuramine to produce 4-hydroxyquinoline, which was measured at the endpoint of the enzyme reactions by fluorescence spectrophotometry.
Experimental for Recombinant human MAO-B: as §1
Experimental for hCA II: (§2) The CO2 concentrations ranged from 1.7 to 17 mM for the determination of the kinetic parameters and inhibition constants. For each inhibitor, six traces of the initial 5–10% of the reaction were used in order to determine the initial velocity. The uncatalyzed reaction rates were determined in the same manner and subtracted from the total observed rates. Stock solutions of inhibitor (0.1 mM) were prepared in distilled water, and dilutions up to 0.01 nM were prepared. Solutions containing inhibitor and enzyme were preincubated for 15 min at room temperature prior to assay in order to allow the formation of the E−I complex. The inhibition constants were obtained as nonlinear least-squares protocols using PRISM 3 and are the mean from at least three different measurements.
Experimental for hCA IX: as §2
Experimental for hCA VA: as §2
Experimental for hCA VB: as §2
Experimental for hCA VII: as §2
Experimental for hCA XII: as §2

Usually Ki stands for a dissociation constant, usually derived from enzyme kinetics or from competition with a known ligand. A word on the IC50: it is the concentration at which inhibition is half-maximal. For the molecule `Oc1ccc(/C=C/c2ccccc2)cc1Cl` [Compound 1], the Ki is 23.6 µM at hCA IX; greater than 100 µM at hCA VII; 9 µM on hCA VA; 2.7 µM at hCA XII; 84.5 µM on hCA VB; 35.8 µM at hCA II. Further, the affinity on hCA I, expressed as Ki, was 89.5 µM. In addition, the IC50 came to 3.06 ± 0.1 µM at Recombinant human MAO-A and 0.156 ± 0.009 µM on Recombinant human MAO-B.
As for `Oc1ccc(/C=C/c2ccc(Cl)cc2Cl)cc1Cl` [Compound 2], the Ki on hCA IX was 81.1 µM; on hCA VII it was 4.2 µM; on hCA VA it was 37.2 µM; at hCA XII, 4.5 µM; at hCA VB it was 32.2 µM; on hCA II, greater than 100 µM. Besides, on hCA I, the Ki is greater than 100 µM. Also, the IC50 was 2.02 ± 0.175 µM at Recombinant human MAO-A and 1.44 ± 0.035 µM on Recombinant human MAO-B.
As for `Oc1ccc(/C=C/c2ccc(Cl)cc2Cl)cc1` [Compound 3], the Ki was greater than 100 µM at hCA IX; 7.5 µM on hCA VII; 86 µM at hCA VA; greater than 100 µM on hCA XII; greater than 100 µM at hCA VB; greater than 100 µM at hCA II. This molecule displayed a Ki at hCA I greater than 100 µM. The IC50 at Recombinant human MAO-A is 1.79 ± 0.095 µM; on Recombinant human MAO-B it was 1.52 ± 0.067 µM.
As to `Oc1ccc(/C=C/c2ccc(C(F)(F)F)cc2)cc1Cl` [Compound 4], the Ki turned out to be 17.4 µM on hCA IX; 0.7 µM on hCA VII; 70.9 µM on hCA VA; 6.9 µM on hCA XII; 36.2 µM at hCA VB; 15.6 µM at hCA II. On hCA I, this molecule showed a Ki of 86.8 µM. Also, the IC50 at Recombinant human MAO-A was 0.43 µM and 0.433 µM; at Recombinant human MAO-B, 0.011 ± 0.0065 µM. Besides, on hCA II (hCA II vs hCA VII), the “inhibition potency against hCA II weaker than against hCA VII” value is “about 22 fold”. The “inhibitory activities against hCA I, VA, and VB lower than against hCA VII” value against hCA I (hCA I, VA, VB vs hCA VII) is “up to 120 fold”.
On to `Oc1ccc(/C=C/c2ccc(C(F)(F)F)cc2)cc1` [Compound 5], for which the Ki at hCA IX is 94.6 µM; on hCA VII it was greater than 100 µM; on hCA VA, 83 µM; on hCA XII it was greater than 100 µM; at hCA VB, 8.7 µM; at hCA II it was 43.4 µM. At hCA I, this molecule came in with a Ki greater than 100 µM. Further, the IC50 at Recombinant human MAO-A amounted to 9.77 ± 0.553 µM; at Recombinant human MAO-B, 14.2 ± 1.82 µM.
With `N#Cc1ccc(/C=C/c2ccc(O)cc2)cc1` [Compound 6], the Ki at hCA IX was greater than 100 µM; on hCA VII it was 7.4 µM; at hCA VA, greater than 100 µM; on hCA XII it was greater than 100 µM; on hCA VB, 9.5 µM; on hCA II, 75.3 µM. The molecule further yielded a Ki on hCA I greater than 100 µM. Besides, the IC50 at Recombinant human MAO-A came to 2.01 ± 0.033 µM; at Recombinant human MAO-B, 0.103 ± 0.003 µM.
With `COc1ccc(/C=C/c2ccc(O)cc2)cc1` [Compound 7], the Ki at hCA IX was 81.8 µM; on hCA VII, 9.4 µM; at hCA VA it was greater than 100 µM; at hCA XII, greater than 100 µM; at hCA VB, 9.7 µM; on hCA II it was greater than 100 µM. The same molecule displayed a Ki on hCA I greater than 100 µM. In addition, the IC50 is 2.71 ± 0.016 µM on Recombinant human MAO-A and 0.185 ± 0.009 µM at Recombinant human MAO-B.
Regarding `Oc1ccc(C=Cc2cc(O)cc(O)c2)cc1` [RSV, 3,4′,5-trihydroxystilbene, reference compound], the inhibition constant Ki on hCA IX was 0.8 µM; on hCA VII, 4.3 µM; at hCA VA, 4.7 µM; at hCA XII, 0.9 µM; at hCA VB, 4.6 µM; on hCA II it was 2.8 µM. Moreover, the affinity at hCA I, expressed as Ki, was 2.2 µM. Besides, the half-maximal inhibitory concentration (IC50) on Recombinant human MAO-B was greater than 100 µM. Moreover, in the assay with MAO, the “mechanism of MAO inhibition” value was “competitive”.
Turning to `C[C@H](NCc1ccc(OCc2cccc(F)c2)cc1)C(N)=O` [safinamide], the IC50 in the assay with MAO-B was […].

(Values after PMC9694798, “Resveratrol Analogues as Dual Inhibitors of Monoamine Oxidase B and Carbonic Anhydrase VII: A New Multi-Target Combination for Neurodegenerative Diseases?” (Molecules, 2022).)
